# Assay results from the supplement of paper PMC9663587.
# Columns and labels:
# BSJ-01-175 = compound: CN(C)C/C=C/C(=O)Nc1ccc(O[C@@H]2CCC[C@@H](Nc3ncc(Cl)c(-c4c[nH]c5ccccc45)n3)C2)cc1 [BSJ-01-175]
# AZD7762 = compound: NC(=O)Nc1cc(-c2cccc(F)c2)sc1C(=O)N[C@H]1CCCNC1 [AZD7762]
# Ipatasertib/GDC0068 = compound: CC(C)NC[C@@H](C(=O)N1CCN(c2ncnc3c2[C@H](C)C[C@H]3O)CC1)c1ccc(Cl)cc1 [Ipatasertib/GDC0068]
# [1] = compound: CCC1=CN=CN=C1N2CCN(CC2)CC3=NC4=C(N3)C=C(C=C4)C(F)(F)F
# AZD6738 = compound: C[C@@H]1COCCN1c1cc(C2([S@](C)(=N)=O)CC2)nc(-c2cc[nH]c3nccc2-3)n1 [AZD6738]
# Tivantinib/ARQ197 = compound: O=C1NC(=O)[C@@H](c2cn3c4c(cccc24)CCC3)[C@@H]1c1c[nH]c2ccccc12 [Tivantinib/ARQ197]
# AZD2014 = compound: CNC(=O)c1cccc(-c2ccc3c(N4CCOC[C@@H]4C)nc(N4CCOC[C@@H]4C)nc3n2)c1 [AZD2014]
# [2] = compound: CC(=O)Nc1cccc(-n2c(=O)n(C3CC3)c(=O)c3c(Nc4ccc(I)cc4F)n(C)c(=O)c(C)c32)c1
# Vorinostat = compound: O=C(CCCCCCC(=O)Nc1ccccc1)NO [Vorinostat]
# [3] = compound: CCN1CCN(Cc2ccc(Nc3ncc(F)c(-c4cc(F)c5nc(C)n(C(C)C)c5c4)n3)nc2)CC1
# Flavopiridol = compound: CN1CC[C@H](c2c(O)cc(O)c3c(=O)cc(-c4ccccc4Cl)oc23)[C@H](O)C1 [Flavopiridol]; assay: increase in dead-cell fraction, 72 h; higher = more death;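 further: breast cancer cell lines in 384-well plates, stained with Hoechst plus LIVE/DEAD far red dye and imaged, cells above an LDR intensity threshold counted dead, Hoechst-negative corpses included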
# [4] = compound: CCc1cnn2c(NCc3ccc[n+]([O-])c3)cc(N3CCCC[C@H]3CCO)nc12; assay: as above
# LEE011/Ribociclib = compound: CN(C)C(=O)c1cc2cnc(Nc3ccc(N4CCNCC4)cn3)nc2n1C1CCCC1 [LEE011/Ribociclib]; assay: as above
# THZ1 = compound: CN(C)C/C=C/C(=O)Nc1ccc(C(=O)Nc2cccc(Nc3ncc(Cl)c(-c4c[nH]c5ccccc45)n3)c2)cc1 [THZ1]; assay: as above
# BSJ-03-123 = compound: CC(=O)c1c(C)c2cnc(Nc3ccc(N4CCN(CCOCCOCCOCCNC(=O)COc5cccc6c5C(=O)N(C5CCC(=O)NC5=O)C6=O)CC4)cn3)nc2n(C2CCCC2)c1=O [BSJ-03-123]; assay: as above
# [5] = compound: CC(=O)c1c(C)c2cnc(Nc3ccc(N4CCNCC4)cn3)nc2n(C2CCCC2)c1=O; assay: as above
# Neratinib/HKI272 = compound: CCOc1cc2ncc(C#N)c(Nc3ccc(OCc4ccccn4)c(Cl)c3)c2cc1NC(=O)/C=C/CN(C)C [Neratinib/HKI272]; assay: as above
# [6] = compound: CCN1CCN(Cc2ccc(Nc3ncc(F)c(-c4cc(F)c5nc(C)n(C(C)C)c5c4)n3)nc2)CC1; assay: as above
# 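Wherever GR50, 72 h is given: breast cancer and non-malignant breast epithelial cell lines, Deep Dye Drop or Dye Drop imaging, nine half-log doses, GR normalized to time-zero plates and DMSO-only controls.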
cell line,measurement,setting,value
HCC202,"GR50, 72 h",BSJ-01-175,0.0167 µM
same,"GR50, 72 h",AZD7762,0.0585 µM
same,"GR50, 72 h",Ipatasertib/GDC0068,3.36 µM
same,"GR50, 72 h",[1],> 10 µM
same,"GR50, 72 h",AZD6738,8.72 µM
same,"GR50, 72 h",Tivantinib/ARQ197,0.816 µM
same,"GR50, 72 h",AZD2014,0.00237 µM
same,"GR50, 72 h",[2],> 1 µM
same,"GR50, 72 h",Vorinostat,3.57 µM
same,"GR50, 72 h",[3],2.43 µM
same,increase in dead-cell fraction,Flavopiridol; 0.0001 µM,0.0217
same,increase in dead-cell fraction,Flavopiridol; 0.0003162 µM,-0.005
same,increase in dead-cell fraction,Flavopiridol; 0.001 µM,0.0178
same,increase in dead-cell fraction,Flavopiridol; 0.003162 µM,-0.0039
same,increase in dead-cell fraction,Flavopiridol; 0.01 µM,-0.0121
same,increase in dead-cell fraction,Flavopiridol; 0.03162 µM,0.0154
same,increase in dead-cell fraction,Flavopiridol; 0.1 µM,0.0477
same,increase in dead-cell fraction,Flavopiridol; 0.3162 µM,0.115
same,increase in dead-cell fraction,Flavopiridol; 1 µM,0.133
same,increase in dead-cell fraction,[4]; 0.0001 µM,0.0056
same,increase in dead-cell fraction,[4]; 0.0003162 µM,0.0103
same,increase in dead-cell fraction,[4]; 0.001 µM,-0.0029
same,increase in dead-cell fraction,[4]; 0.003162 µM,-0.0193
same,increase in dead-cell fraction,[4]; 0.01 µM,-0.0112
same,increase in dead-cell fraction,[4]; 0.03162 µM,0.132
same,increase in dead-cell fraction,[4]; 0.1 µM,0.106
same,increase in dead-cell fraction,[4]; 0.3162 µM,0.122
same,increase in dead-cell fraction,[4]; 1 µM,0.126
same,increase in dead-cell fraction,LEE011/Ribociclib; 0.001 µM,0.0107
same,increase in dead-cell fraction,LEE011/Ribociclib; 0.003162 µM,-0.0028
same,increase in dead-cell fraction,LEE011/Ribociclib; 0.01 µM,0.0035
same,increase in dead-cell fraction,LEE011/Ribociclib; 0.03162 µM,0.0081
same,increase in dead-cell fraction,LEE011/Ribociclib; 0.1 µM,0.0043
same,increase in dead-cell fraction,LEE011/Ribociclib; 0.3162 µM,0.0132
same,increase in dead-cell fraction,LEE011/Ribociclib; 1 µM,0.0255
same,increase in dead-cell fraction,LEE011/Ribociclib; 3.162 µM,0.0242
same,increase in dead-cell fraction,LEE011/Ribociclib; 10 µM,0.0292
same,increase in dead-cell fraction,THZ1; 0.0001 µM,0.0041
same,increase in dead-cell fraction,THZ1; 0.0003162 µM,-0.0036
same,increase in dead-cell fraction,THZ1; 0.001 µM,0.0114
same,increase in dead-cell fraction,THZ1; 0.003162 µM,0.0077
same,increase in dead-cell fraction,THZ1; 0.01 µM,0.0009
same,increase in dead-cell fraction,THZ1; 0.03162 µM,0.0391
same,increase in dead-cell fraction,THZ1; 0.1 µM,0.0709
same,increase in dead-cell fraction,THZ1; 0.3162 µM,0.103
same,increase in dead-cell fraction,THZ1; 1 µM,0.164
same,increase in dead-cell fraction,BSJ-03-123; 0.001 µM,0.0092
same,increase in dead-cell fraction,BSJ-03-123; 0.003162 µM,0.0099
same,increase in dead-cell fraction,BSJ-03-123; 0.01 µM,0.0404
same,increase in dead-cell fraction,BSJ-03-123; 0.03162 µM,0.0154
same,increase in dead-cell fraction,BSJ-03-123; 0.1 µM,0.0009
same,increase in dead-cell fraction,BSJ-03-123; 0.3162 µM,0.0019
same,increase in dead-cell fraction,BSJ-03-123; 1 µM,0.0243
same,increase in dead-cell fraction,BSJ-03-123; 3.162 µM,0.0201
same,increase in dead-cell fraction,BSJ-03-123; 10 µM,0.126
same,increase in dead-cell fraction,[5]; 0.0003162 µM,0.0137
same,increase in dead-cell fraction,[5]; 0.001 µM,-0.0003
same,increase in dead-cell fraction,[5]; 0.003162 µM,0.0115
same,increase in dead-cell fraction,[5]; 0.01 µM,0.0189
same,increase in dead-cell fraction,[5]; 0.03162 µM,0.0085
same,increase in dead-cell fraction,[5]; 0.1 µM,0.0163
same,increase in dead-cell fraction,[5]; 0.3162 µM,0.0112
same,increase in dead-cell fraction,[5]; 1 µM,0.0306
same,increase in dead-cell fraction,[5]; 3.162 µM,0.0531
same,increase in dead-cell fraction,Neratinib/HKI272; 0.0003162 µM,-0.0093
same,increase in dead-cell fraction,Neratinib/HKI272; 0.001 µM,-0.0087
same,increase in dead-cell fraction,Neratinib/HKI272; 0.003162 µM,0.0183
same,increase in dead-cell fraction,Neratinib/HKI272; 0.01 µM,0.0049
same,increase in dead-cell fraction,Neratinib/HKI272; 0.03162 µM,0.0466
same,increase in dead-cell fraction,Neratinib/HKI272; 0.1 µM,0.0644
same,increase in dead-cell fraction,Neratinib/HKI272; 0.3162 µM,0.0996
same,increase in dead-cell fraction,Neratinib/HKI272; 1 µM,0.103
same,increase in dead-cell fraction,Neratinib/HKI272; 3.162 µM,0.136
same,increase in dead-cell fraction,[6]; 0.001 µM,0.0017
same,increase in dead-cell fraction,[6]; 0.003162 µM,0.0045
same,increase in dead-cell fraction,[6]; 0.01 µM,0.0025
same,increase in dead-cell fraction,[6]; 0.03162 µM,0.0166
same,increase in dead-cell fraction,[6]; 0.1 µM,0.02
same,increase in dead-cell fraction,[6]; 0.3162 µM,0.0336
same,increase in dead-cell fraction,[6]; 1 µM,0.0207
same,increase in dead-cell fraction,[6]; 3.162 µM,0.049
same,increase in dead-cell fraction,[6]; 10 µM,0.0763
